From PMC8217813, “Bridging Computational Vaccinology and Vaccine Development Through Systematic Identification, Characterization, and Downselection of Conserved and Variable Circumsporozoite Protein CD4 T Cell Epitopes From Diverse Plasmodium falciparum Strains” (Frontiers in Immunology, 2021)
Peptide text beside a SMILES is read from it.

Legend:
[1] = tested on: CD4 T cells co-cultured with autologous DCs from PBMCs; format: cell-based, human; settings: positive = Stimulation Index ≥1.5-fold above baseline, 5 µg/mL peptide
HLA-DRB1*0701 = HLA-DRB1*0701 (Homo sapiens, UniProt P01903+P01911, A100R/A102G/A103Q/D57E/D86V/E43K/F76Y/K127E/L162R/M171V/P40G/Q125H/Q99D/R33Q/R42Y/R54Q/S133A/S66F/T210M/V115G/Y107V/Y59L/Y89S); assay: In vitro class II HLA binding competition assay
Method in brief: (§1)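 Test peptides at final concentrations of 100,000 nM to 100 nM competed with a fluorescent-labelled reference peptide for limiting class II HLA monomers over 24 hours. Complexes were captured on anti-HLA-DR plates and detected by europium time-resolved fluorescence. IC50 calculated from percent inhibition of reference binding.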

HLA-DRB1*0401 = target: T1, HLA-DRB1*0401 (Homo sapiens, UniProt P01903+P01911, A100K/A169T/F76Y/I96L/K127E/L162R/M171V/N62H/P40V/Q125Y/R42H/S133A/S149N/S66Y/V115G/V209L/W38E); assay: In vitro class II HLA binding competition assay
T1 construct: purchased
Method in brief: as §1

HLA-DRB1*1501 = target: T2, HLA-DRB1*1501 (Homo sapiens, UniProt P01903+P01911); assay: In vitro class II HLA binding competition assay
T2 construct: purchased
Method in brief: as §1

HLA-DRB1*0101 = target: T3, HLA-DRB1*0101 (Homo sapiens, UniProt P01903+P01911, A100R/D57E/F55L/F60I/F76Y/I96L/L162R/M171V/P40L/Q125E/R42F/V115G/Y59C); assay: In vitro class II HLA binding competition assay; settings: competition with fluorescent-labeled reference peptide, class II HLA monomers, 24-hours, test peptide 100,000 nM to 100 nM, time-resolved fluorescence
T3 construct: purchased
Method in brief: as §1

HLA-DRB1*1301 = HLA-DRB1*1301 (Homo sapiens, UniProt P01903+P01911, A100E/A169T/K41T/L162R/M171V/P40S/Q125H/Q178H/Q39Y/Q99D/R42S/S66N/T262R/W38E/Y61H); assay: In vitro class II HLA binding competition assay; settings: competition with fluorescent-labeled reference peptide, class II HLA monomers, 24-hours, test peptide 100,000 nM to 100 nM, time-resolved fluorescence
Method in brief: as §1

HLA-DRB1*0301 = HLA-DRB1*0301 (Homo sapiens, UniProt P01903+P01911, A100K/A102G/A103R/A169T/F55Y/I96L/K41T/L162R/M171V/P40S/Q125H/Q178H/Q39Y/R42S/S66N/T106N/T262R/W38E/Y61H); assay: In vitro class II HLA binding competition assay; settings: competition with fluorescent-labeled reference peptide, class II HLA monomers, 24-hours, test peptide 100,000 nM to 100 nM, time-resolved fluorescence
Method in brief: as §1

HLA-DRB1*0801 = HLA-DRB1*0801 (Homo sapiens, UniProt P01903+P01911, A100R/A103L/A169T/D86S/F76Y/H45Y/I96F/K41T/L162R/M171V/P40S/Q125H/Q178H/Q39Y/Q99D/R218S/R42G/S66Y/V115G/W38E); assay: In vitro class II HLA binding competition assay; settings: competition with fluorescent-labeled reference peptide, class II HLA monomers, 24-hours, test peptide 100,000 nM to 100 nM, time-resolved fluorescence
Method in brief: as §1

HLA-DRB1*1101 = target: T4, HLA-DRB1*1101 (Homo sapiens, UniProt P01903+P01911, A100R/A169T/A87E/I96F/K41T/L162R/M171V/P40S/Q125H/Q178H/Q39Y/Q99D/R42S/S66Y/T262R/V115G/W38E); assay: In vitro class II HLA binding competition assay; settings: competition with fluorescent-labeled reference peptide, class II HLA monomers, 24-hours, test peptide 100,000 nM to 100 nM, time-resolved fluorescence
T4 construct: purchased
Method in brief: as §1

CC[C@H](C)[C@H](NC(=O)[C@H](Cc1c[nH]cn1)NC(=O)[C@H](CCC(N)=O)NC(=O)[C@H](CC(=O)O)NC(C)=O)C(=O)N[C@@H](CCC(=O)O)C(=O)N[C@@H](CCCCN)C(=O)N[C@@H](Cc1ccc(O)cc1)C(=O)N[C@@H](CC(C)C)C(=O)N[C@@H](CCCCN)C(=O)N[C@H](C(=O)N[C@H](C(=O)N[C@@H](CCC(N)=O)C(=O)N[C@@H](CC(N)=O)C(=O)N[C@@H](CO)C(=O)N[C@@H](CC(C)C)C(=O)N[C@@H](CO)C(=O)N[C@H](C(=O)N[C@@H](CCC(=O)O)C(=O)N[C@@H](Cc1c[nH]c2ccccc12)C(=O)N[C@@H](CO)C(=O)N1CCC[C@H]1C(N)=O)[C@@H](C)O)[C@@H](C)CC)[C@@H](C)CC [ICS5] (Ac-DQHIEKYLKIIQNSLSTEWSP-NH2)
Percentage of donors demonstrating IFN-γ responses, DR1 ([1]; DR1 donors N=5, ICCS after 14-day co-culture): 80% | Percentage of donors demonstrating IL-2 responses, DR1 ([1]; DR1 donors N=5, ICCS): 20% | Percentage of donors demonstrating IL-4 responses, DR1 ([1]; DR1 donors N=5, ICCS): 0% | Percentage of donors demonstrating IL-10 responses, DR1 ([1]; DR1 donors N=5, ICCS): 0% | Percentage of donors demonstrating TNF-α responses, DR1 ([1]; DR1 donors N=5, ICCS): 40% | Percentage of donors demonstrating IFN-γ responses, DR3 ([1]; DR3 donors N=6, ICCS after 14-day co-culture): 33% | Percentage of donors demonstrating IL-2 responses, DR3 ([1]; DR3 donors N=6, ICCS): 0% | Percentage of donors demonstrating IL-4 responses, DR3 ([1]; DR3 donors N=6, ICCS): 33% | Percentage of donors demonstrating IL-10 responses, DR3 ([1]; DR3 donors N=6, ICCS): 17% | Percentage of donors demonstrating TNF-α responses, DR3 ([1]; DR3 donors N=6, ICCS): 17% | Percentage of donors demonstrating IFN-γ responses, DR4 ([1]; DR4 donors N=10, ICCS after 14-day co-culture): 60% | Percentage of donors demonstrating IL-2 responses, DR4 ([1]; DR4 donors N=10, ICCS): 40% | Percentage of donors demonstrating IL-4 responses, DR4 ([1]; DR4 donors N=10, ICCS): 0% | Percentage of donors demonstrating IL-10 responses, DR4 ([1]; DR4 donors N=10, ICCS): 0% | Percentage of donors demonstrating TNF-α responses, DR4 ([1]; DR4 donors N=10, ICCS): 40% | Percentage of donors demonstrating IFN-γ responses, DR7 ([1]; DR7 donors N=4, ICCS after 14-day co-culture): 75% | Percentage of donors demonstrating IL-2 responses, DR7 ([1]; DR7 donors N=4, ICCS): 25% | Percentage of donors demonstrating IL-4 responses, DR7 ([1]; DR7 donors N=4, ICCS): 25% | Percentage of donors demonstrating IL-10 responses, DR7 ([1]; DR7 donors N=4, ICCS): 0% | Percentage of donors demonstrating TNF-α responses, DR7 ([1]; DR7 donors N=4, ICCS): 0% | Percentage of donors demonstrating IFN-γ responses, DR8 ([1]; DR8 donors N=4, ICCS after 14-day co-culture): 25% | Percentage of donors demonstrating IL-2 responses, DR8 ([1]; DR8 donors N=4, ICCS): 0% | Percentage of donors demonstrating IL-4 responses, DR8 ([1]; DR8 donors N=4, ICCS): 0% | Percentage of donors demonstrating IL-10 responses, DR8 ([1]; DR8 donors N=4, ICCS): 0% | Percentage of donors demonstrating TNF-α responses, DR8 ([1]; DR8 donors N=4, ICCS): 75% | Percentage of donors demonstrating IFN-γ responses, DR9 ([1]; DR9 donors N=4, ICCS after 14-day co-culture): 50% | Percentage of donors demonstrating IL-2 responses, DR9 ([1]; DR9 donors N=4, ICCS): 25% | Percentage of donors demonstrating IL-4 responses, DR9 ([1]; DR9 donors N=4, ICCS): 0% | Percentage of donors demonstrating IL-10 responses, DR9 ([1]; DR9 donors N=4, ICCS): 25% | Percentage of donors demonstrating TNF-α responses, DR9 ([1]; DR9 donors N=4, ICCS): 50% | Percentage of donors demonstrating IFN-γ responses, DR11 ([1]; DR11 donors N=4, ICCS after 14-day co-culture): 100% | Percentage of donors demonstrating IL-2 responses, DR11 ([1]; DR11 donors N=4, ICCS): 50% | Percentage of donors demonstrating IL-4 responses, DR11 ([1]; DR11 donors N=4, ICCS): 0% | Percentage of donors demonstrating IL-10 responses, DR11 ([1]; DR11 donors N=4, ICCS): 0% | Percentage of donors demonstrating TNF-α responses, DR11 ([1]; DR11 donors N=4, ICCS): 75% | Percentage of donors demonstrating IFN-γ responses, DR13 ([1]; DR13 donors N=7, ICCS after 14-day co-culture): 43% | Percentage of donors demonstrating IL-2 responses, DR13 ([1]; DR13 donors N=7, ICCS): 14% | Percentage of donors demonstrating IL-4 responses, DR13 ([1]; DR13 donors N=7, ICCS): 14% | Percentage of donors demonstrating IL-10 responses, DR13 ([1]; DR13 donors N=7, ICCS): 0% | Percentage of donors demonstrating TNF-α responses, DR13 ([1]; DR13 donors N=7, ICCS): 43% | Percentage of donors demonstrating IFN-γ responses, DR15 ([1]; DR15 donors N=7, ICCS after 14-day co-culture): 43% | Percentage of donors demonstrating IL-2 responses, DR15 ([1]; DR15 donors N=7, ICCS): 0% | Percentage of donors demonstrating IL-4 responses, DR15 ([1]; DR15 donors N=7, ICCS): 0% | Percentage of donors demonstrating IL-10 responses, DR15 ([1]; DR15 donors N=7, ICCS): 14% | Percentage of donors demonstrating TNF-α responses, DR15 ([1]; DR15 donors N=7, ICCS): 29% | IC50 (HLA-DRB1*0701): 3.68 µM | IC50 (HLA-DRB1*0401): 0.035 µM | IC50 (HLA-DRB1*1501): 0.03 µM | IC50 (HLA-DRB1*0101): 0.218 µM | IC50 (HLA-DRB1*1301): 19.8 µM | IC50 (HLA-DRB1*0301): 84.7 µM | IC50 (HLA-DRB1*0801): 23.1 µM | IC50 (HLA-DRB1*1101): 5.55 µM
